This note sets out measurements from US20160158236A1, “PHARMACEUTICAL COMPOSITION COMPRISING A TRPA1 ANTAGONIST AND A STEROID” (GLENMARK PHARMACEUTICALS S.A., priority 2011, published 2016).

Assay [1] deals with ovalbumin sensitized female Balb/C mice. Put plainly: Ovalbumin induced inflammation in ovalbumin sensitized mice (Compound 52 and prednisolone), BAL cell counts. It counts as in vivo. The conditions noted are these: 1 mg/Kg p.o. (combination: 1 mg/Kg of each compound); BAL 24 hours after ovalbumin challenge. The protocol:
Sensitized mice were randomly assigned to different treatment groups. […] Animals were administered Compound 52 orally 24 hrs before first ovalbumin challenge and 2 hrs before ovalbumin challenge from Day-11 to 13. Animals were administered Prednisolone orally 24 hrs before first ovalbumin challenge and 2 hrs before ovalbumin challenge from Day-11 to 13. The animals were divided into groups as per Table 2.
Broncho Alveolar Lavage (BAL) was performed at 24 hours after challenge with ovalbumin. Animals were anesthetized with an overdose of urethane, trachea was exposed and BAL was performed 4 times using 0.3 mL PBS. All aspirates of BAL were pooled and total number of cells determined using a hemocytometer. The BAL was centrifuged, and the cell pellet was used for preparation of smears. Slides were stained with Giemsa stain and a differential cell count of 500 cells based on standard morphology was performed manually.
Calculations: The total number of eosinophils in each BAL sample was calculated using the formula: […]
Percent inhibition of eosinophils was calculated using the following formula: […]

Another assay addresses T1, human TRPA1 receptor (Homo sapiens, UniProt O75762).
T1 construct: expressed in transfected cells; host or cells: CHO cells
Put plainly: Inhibition of AITC induced cellular uptake of radioactive calcium in human TRPA1 expressing CHO cells. In kind it is cell-based. The conditions noted are these: read-out: hTRPA1 IC50 values. The protocol:
Test compound solution is prepared in a suitable solvent. Human TRPA1 expressing CHO cells are grown in suitable medium. Cells are treated with test compounds followed by addition of AITC. Cells are washed, lysed and the radioactivity in the lysate is measured in Packard Top count after addition of liquid scintillant.
The concentration response curves for compounds are plotted as a % of maximal response obtained in the absence of test antagonist, and the IC50 values are calculated from such concentration response curve by nonlinear regression analysis using GraphPad PRISM software.

T1 sequence (O75762 whole entry): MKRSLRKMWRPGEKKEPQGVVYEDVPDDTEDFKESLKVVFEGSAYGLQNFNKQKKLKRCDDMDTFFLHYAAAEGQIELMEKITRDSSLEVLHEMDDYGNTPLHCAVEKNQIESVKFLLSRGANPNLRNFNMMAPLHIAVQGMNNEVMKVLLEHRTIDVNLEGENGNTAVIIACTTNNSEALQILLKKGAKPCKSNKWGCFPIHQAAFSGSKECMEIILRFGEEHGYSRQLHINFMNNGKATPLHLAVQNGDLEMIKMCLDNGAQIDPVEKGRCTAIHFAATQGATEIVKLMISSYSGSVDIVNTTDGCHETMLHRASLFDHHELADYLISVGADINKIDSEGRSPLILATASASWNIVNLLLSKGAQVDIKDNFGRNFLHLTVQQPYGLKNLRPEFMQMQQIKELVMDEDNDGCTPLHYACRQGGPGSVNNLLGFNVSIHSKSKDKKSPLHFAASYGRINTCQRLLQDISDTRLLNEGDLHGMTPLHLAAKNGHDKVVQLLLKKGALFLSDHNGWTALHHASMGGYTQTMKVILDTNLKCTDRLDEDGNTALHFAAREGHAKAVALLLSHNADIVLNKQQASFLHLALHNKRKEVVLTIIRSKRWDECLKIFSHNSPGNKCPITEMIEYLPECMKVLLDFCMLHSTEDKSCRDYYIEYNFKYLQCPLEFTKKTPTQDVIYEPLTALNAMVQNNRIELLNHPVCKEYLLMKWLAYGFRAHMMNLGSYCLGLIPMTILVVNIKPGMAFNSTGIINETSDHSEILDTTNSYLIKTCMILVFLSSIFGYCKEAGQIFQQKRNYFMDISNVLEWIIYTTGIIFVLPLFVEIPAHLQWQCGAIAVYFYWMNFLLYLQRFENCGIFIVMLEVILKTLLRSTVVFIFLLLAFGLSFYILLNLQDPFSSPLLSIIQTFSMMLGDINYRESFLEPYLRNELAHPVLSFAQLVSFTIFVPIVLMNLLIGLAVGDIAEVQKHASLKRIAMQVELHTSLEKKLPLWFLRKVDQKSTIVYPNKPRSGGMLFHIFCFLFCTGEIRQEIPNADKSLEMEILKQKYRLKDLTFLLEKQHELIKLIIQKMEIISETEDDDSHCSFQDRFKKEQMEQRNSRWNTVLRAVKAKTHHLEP

Turning to `C[C@]12C=CC(=O)C=C1CC[C@@H]1[C@@H]2[C@@H](O)C[C@@]2(C)[C@H]1CC[C@]2(O)C(=O)CO` [Prednisolone, reference compound], in assay [1], the “% Inhibition of cell in BALf” value is given as 21%, the “% Inhibition of eosinophils in BALf” value is given as 24%, the “Total cell number in BALf” value stood at 10.8 ± 1.0 and the “Total eosinophils in BALf” value is recorded as 5.6 ± 0.7.
Regarding `CC(C)C(N)C(=O)OCn1c(-c2ccc(F)c(C(F)(F)F)c2F)csc1=NC(=O)Cc1csc2c1c(=O)n(C)c(=O)n2C` (stereo not drawn) [Compound 97], the IC50 (commonly the concentration needed to halve the response being measured) on human TRPA1 receptor was 0.0219 µM.
Take `Cn1c(=O)c2c(CC(=O)Nc3nc(-c4ccc(F)c(C(F)(F)F)c4F)cs3)csc2n(C)c1=O` [Compound 52]: in assay [1], the “% Inhibition of cell in BALf” value is 10%, the “% Inhibition of eosinophils in BALf” value was found to be 21%, the “Total cell number in BALf” value stood at 12.2 ± 0.5 and the “Total eosinophils in BALf” value amounted to 5.8 ± 0.5.
